Source: paper PMC3180450, “Structural Insights into the Mechanism of Protein O-Fucosylation” (PLoS ONE, 2011)
Changes are numbered by the printed parent chain. Like-named read-outs stand apart in the source and are kept apart here.

Key:
Type in all cases: binding
[1] = molecular target: T1, CePOFUT1 (Caenorhabditis elegans, UniProt Q18014); test: thermal shift assay (ANS fluorescence)
T1 construct: gene pfut-1; codon-optimized synthetic gene in pPICZalphaA with KEX2 cleavage signal, secreted from Pichia pastoris X-33; monomer
T1 sequence (Q18014 26-382): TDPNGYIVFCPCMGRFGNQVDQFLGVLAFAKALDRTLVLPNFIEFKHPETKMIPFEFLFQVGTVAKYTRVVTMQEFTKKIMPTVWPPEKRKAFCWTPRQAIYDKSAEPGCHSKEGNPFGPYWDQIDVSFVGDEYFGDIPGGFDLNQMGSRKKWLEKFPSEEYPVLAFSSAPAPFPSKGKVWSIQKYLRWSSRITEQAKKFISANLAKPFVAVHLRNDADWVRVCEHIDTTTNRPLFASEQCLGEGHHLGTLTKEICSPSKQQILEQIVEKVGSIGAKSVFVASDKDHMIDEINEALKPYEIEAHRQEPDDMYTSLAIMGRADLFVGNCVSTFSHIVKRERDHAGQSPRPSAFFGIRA
Source text: (§1) thermal shift assay (ANS fluorescence) on CePOFUT1

[2] = molecular target: T1, CePOFUT1; test: isothermal titration calorimetry; settings: read-out: K d (μM)GDP-fucose
Source text: (§2) isothermal titration calorimetry on CePOFUT1

[3] = molecular target: T2, CePOFUT1 (Caenorhabditis elegans, UniProt Q18014, D309N); test: thermal shift assay (ANS fluorescence); settings: read-out: ΔT m (°C)1 mM GDP
T2 construct: gene pfut-1; codon-optimized synthetic gene in pPICZalphaA with KEX2 cleavage signal, secreted from Pichia pastoris X-33; monomer
T2 sequence (Q18014 26-382 D309N): T1 sequence (Q18014 26-382) with D284N
Source text: as §1

[4] = molecular target: T3, CePOFUT1 (Caenorhabditis elegans, UniProt Q18014, F199A); test: isothermal titration calorimetry
T3 construct: gene pfut-1; codon-optimized synthetic gene in pPICZalphaA with KEX2 cleavage signal, secreted from Pichia pastoris X-33; monomer
T3 sequence (Q18014 26-382 F199A): T1 sequence (Q18014 26-382) with F174A
Source text: as §2

[5] = molecular target: T4, CePOFUT1 (Caenorhabditis elegans, UniProt Q18014, D244A); test: isothermal titration calorimetry
T4 construct: gene pfut-1; codon-optimized synthetic gene in pPICZalphaA with KEX2 cleavage signal, secreted from Pichia pastoris X-33; monomer
T4 sequence (Q18014 26-382 D244A): T1 sequence (Q18014 26-382) with D219A
Source text: as §2

[6] = molecular target: T5, CePOFUT1 (Caenorhabditis elegans, UniProt Q18014, R240K); test: isothermal titration calorimetry
T5 construct: gene pfut-1; codon-optimized synthetic gene in pPICZalphaA with KEX2 cleavage signal, secreted from Pichia pastoris X-33; monomer
T5 sequence (Q18014 26-382 R240K): T1 sequence (Q18014 26-382) with R215K
Source text: as §2

[7] = molecular target: T6, CePOFUT1 (Caenorhabditis elegans, UniProt Q18014, N43A); test: isothermal titration calorimetry
T6 construct: gene pfut-1; codon-optimized synthetic gene in pPICZalphaA with KEX2 cleavage signal, secreted from Pichia pastoris X-33; monomer
T6 sequence (Q18014 26-382 N43A): T1 sequence (Q18014 26-382) with N18A
Source text: as §2

[8] = molecular target: T7, CePOFUT1 (Caenorhabditis elegans, UniProt Q18014, F357A); test: isothermal titration calorimetry
T7 construct: gene pfut-1; codon-optimized synthetic gene in pPICZalphaA with KEX2 cleavage signal, secreted from Pichia pastoris X-33; monomer
T7 sequence (Q18014 26-382 F357A): T1 sequence (Q18014 26-382) with F332A
Source text: as §2

[9] = molecular target: T8, CePOFUT1 (Caenorhabditis elegans, UniProt Q18014, F261A); test: isothermal titration calorimetry
T8 construct: gene pfut-1; codon-optimized synthetic gene in pPICZalphaA with KEX2 cleavage signal, secreted from Pichia pastoris X-33; monomer
T8 sequence (Q18014 26-382 F261A): T1 sequence (Q18014 26-382) with F236A
Source text: as §2

[10] = molecular target: T9, CePOFUT1 (Caenorhabditis elegans, UniProt Q18014, W245A); test: isothermal titration calorimetry
T9 construct: gene pfut-1; codon-optimized synthetic gene in pPICZalphaA with KEX2 cleavage signal, secreted from Pichia pastoris X-33; monomer
T9 sequence (Q18014 26-382 W245A): T1 sequence (Q18014 26-382) with W220A
Source text: as §2

[11] = molecular target: T10, CePOFUT1 (Caenorhabditis elegans, UniProt Q18014, R40A); test: isothermal titration calorimetry
T10 construct: gene pfut-1; codon-optimized synthetic gene in pPICZalphaA with KEX2 cleavage signal, secreted from Pichia pastoris X-33; monomer
T10 sequence (Q18014 26-382 R40A): T1 sequence (Q18014 26-382) with R15A
Source text: as §2

[12] = molecular target: T11, CePOFUT1 (Caenorhabditis elegans, UniProt Q18014, D242A); test: isothermal titration calorimetry
T11 construct: gene pfut-1; codon-optimized synthetic gene in pPICZalphaA with KEX2 cleavage signal, secreted from Pichia pastoris X-33; monomer
T11 sequence (Q18014 26-382 D242A): T1 sequence (Q18014 26-382) with D217A
Source text: as §2

ΔTm at 1000 µM ([1]; read-out: ΔT m (°C)1 mM GDP-fucose) [°C]	Kd [2] [µM]	ΔTm at 1000 µM ([1]; read-out: ΔT m (°C)1 mM GDP) [°C]	ΔTm at 1000 µM [3] [°C]	Kd [4] [nM]	Kd [5] [nM]	Kd [6] [nM]	Kd [7] [nM]	Kd [8] [nM]	Kd [9] [nM]	Kd [10] [nM]	Kd [11] [nM]	Kd [12] [nM]	Structure (SMILES)
2.19	0.23 ± 0.04	–	–	–	–	–	–	–	–	–	–	–	C[C@@H]1O[C@H](OP(=O)(O)OP(=O)(O)OC[C@H]2O[C@@H](n3cnc4c(=O)[nH]c(N)nc43)[C@H](O)[C@@H]2O)[C@@H](O)[C@H](O)[C@@H]1O [GDP-fucose]
–	–	4.21	5.01	180 ± 30	100 ± 10	61200 ± 10500	300 ± 90	26900 ± 5000	120 ± 70	1600 ± 400	3100 ± 530	90 ± 20	Nc1nc2c(ncn2[C@@H]2O[C@H](COP(=O)(O)OP(=O)(O)O)[C@@H](O)[C@H]2O)c(=O)[nH]1 [GDP]
